Like-named read-outs stand apart in the source and are kept apart here.
Tests used:
[1] = test system: Plasmopara viticola; assay: Greenhouse: activity against downy mildew of grapevine; type: in vivo; conditions: single active substance, grapevine leaves sprayed 1 day before inoculation
Protocol: (§1) The active substances, separately or individually, were prepared as a stock solution, using 25 mg of active substance, which was made up to 10 ml with a mixture of acetone and/or DMSO and the emulsifier Uniperol® EL (wetter based on ethoxylated alkylphenols, with emulsifying and disputing activity) in the volumetric solvent/emulsifier ratio of 99 to 1. Then, the mixtures were made up to 100 ml with water. This stock solution was diluted with the above-described solvent/emulsifier/water mixture to give the active substance concentration stated below. As an alternative, the active substances were used as a commercially available ready mix and made up to the active substance concentration stated with water.
(§2) The visually determined values for the percentage of affected leaf area were converted into efficacies as % of the untreated control:
(§3) The efficacy (E) is calculated as follows, using Abbot's formula: E=(1−α/β)·100 • α corresponds to the fungal disease level of the treated plants in % and • β corresponds to the fungal disease level of the untreated (control) plants in %
(§4) At an efficacy of 0 the disease level of the treated plants corresponds to that of the untreated control plants; at an efficacy of 100, the treated plants are not diseased.
(§5) The expected efficacies for active substance combinations were determined using the Colby formula (Colby, S. R. (Calculating synergistic and antagonistic responses of herbicide Combinations”, Weeds, 15, p. 20-22, 1967) and compared with the observed efficacies.
(§6) Colby Formula: E=x+y−x·y/100 • E expected efficacy, expressed in % of the untreated control, when employing the mixture of the active substances A and B at the concentrations a and b • x efficacy, expressed in % of the untreated control, when employing active substance A at concentration a • y efficacy, expressed in % of the untreated control, when employing active substance B at concentration b
Leaves of pot-grown grapevines were sprayed to runoff point with aqueous suspension at the active substance concentration stated below. On the next day, the abaxial sides of the leaves were inoculated with an aqueous sporangia suspension of Plasmopara viticola. Then, the grapevines were placed first for 24 hours into a water-vapor-saturated chamber at 24° C. and then for 5 days in the greenhouse at temperatures of between 20 and 30° C. After this time, the plants were returned into a humid chamber for 16 hours in order to accelerate the eruption of the sporangiophores. Then, the extent of the disease development on the abaxial sides of the leaves was determined visually.

[2] = test system: Phytophthora infestans; type: cell-based; conditions: single active substance, microtiter plate, day 7, 405 nm
[3] = test system: Septoria tritici; assay: Microtiter test against the Septoria leaf spot pathogen (Septtr); type: cell-based; conditions: single active substance, microtiter plate, day 7, 405 nm
[4] = test system: Phytophthora infestans; type: in vivo; conditions: single active substance, tomato, protective spray, rated after 6 days
[5] = test system: Botrytis cinerea; assay: Greenhouse: 1-day protective activity against gray mold on capsicum leaves; type: in vivo; conditions: single active substance, protective 1 day, rated after 5 days
Protocol: as §1, §2, §3, §4, §5, §6
Capsicum seedlings were allowed to develop 2-3 leaves properly and were then sprayed to runoff point with an aqueous suspension of the active substance concentration stated below. On the next day, the treated plants were inoculated with a spore suspension of Botrytis cinerea in a 2% strength Biomalz solution. Thereafter, the test plants were placed into a controlled-environment cabinet at 22 to 24° C. in the dark and with high atmospheric humidity. After 5 days, it was possible to visually determine the extent of the fungal disease level on the leaves in %.

[6] = test system: Puccinia recondita; assay: Greenhouse: protective activity against leaf rust of wheat; type: in vivo; conditions: single active substance
Protocol: as §1, §2
(§7) The efficacy (E) is calculated as follows, using Abbot's formula: E=(1−α/β)·100 • α corresponds to the fungal disease level of the treated plants in % and • β corresponds to the fungal disease level of the untreated (control) plants in % […]
(§8) The expected efficacies for active substance combinations were determined using the Colby formula (Colby, S. R. (Calculating synergistic and antagonistic responses of herbicide Combinations”, Weeds, 15, p. 20-22, 1967) and compared with the observed efficacies. […]

[7] = test system: Puccinia recondita; assay: Greenhouse: curative activity against leaf rust of wheat; type: in vivo; conditions: single active substance
Protocol: as §1, §2, §7, §8

[8] = test system: Pyrenophora teres; assay: Greenhouse: 1-day protective activity against barley net blotch disease; type: in vivo, Pyrenophora [syn. Drechslera] teres; conditions: single active substance, protective 1 day, rated after 6 days
Protocol: as §1, §2, §7, §8

[9] = test system: Phakopsora pachyrhizi; assay: Greenhouse: curative activity against soybean rust; type: in vivo; conditions: single active substance
Protocol: as §1, §2, §7, §8

[10] = 0.063 ppm, efficacy as % of untreated control (Abbot)

SMILES | Observed effect (%) ([2]; 1 ppm) | Observed effect (%) ([2]; 4 ppm) | Observed effect (%) ([2]; 16 ppm) | Observed effect (%) ([1]; 0.25 ppm) | also measured
CCC/C(=N\OCC)C1=C(O)CC(C2CCCSC2)CC1=O (stereo not drawn) [Cycloxydim (I.Ba), cycloxydim, reference compound] | 9% | 5% | 13% | – | Observed effect (%) ([1]; 0.063 ppm): 0%; Observed effect (%) ([3]; 63 ppm): 39%
COC[C@H](C)N(C(=O)CCl)c1c(C)csc1C [Dimethenamid-P (I.Ea)] | – | – | – | – | Observed effect (%) ([1]; 0.016 ppm): 0%
COCC(C)N(C(=O)CCl)c1c(C)csc1C (stereo not drawn) [Dimetheneamid-P (I.Ea), dimethenamid-P, reference compound] | – | – | – | – | Observed effect (%) [4, 10]: 22%; Observed effect (%) ([5]; 0.25 ppm): 0%
CP(=O)(O)CCC(N)C(=O)O (stereo not drawn) [Glufosinate (I.Ab)] | 3% | 12% | 20% | 0% | Observed effect (%) ([1]; 0.063 ppm): 0%
O=C(O)CNCP(=O)(O)O [Glyphosate (I.Aa), glyphosate, reference compound] | 4% | 1% | 13% | – | Observed effect (%) ([6]; 0.063 ppm): 0%; Observed effect (%) ([7]; 0.063 ppm, curative (sprayed 1 day after inoculation)): 0%; Observed effect (%) ([1]; 0.016 ppm): 0%
Cc1nc2ncnn2c(N)c1-c1ccc(Cl)c(Cl)c1 [II-1, 6-(3,4-dichlorophenyl)-5-methyl-[1,2,4]triazolo[1,5-a]pyrimidin-7-ylamine] | – | – | – | – | Observed effect (%) ([3]; 16 ppm): 12%
CCCCCCCCc1nc2ncnn2c(N)c1CC [II-6, 6-ethyl-5-octyl-[1,2,4]triazolo[1,5-a]pyrimidin-7-ylamine] | – | – | 25% | – | Observed effect (%) ([5]; 16 ppm): 0%; Observed effect (%) ([6]; 4 ppm): 0%; Observed effect (%) ([7]; 4 ppm, curative): 0%; Observed effect (%) ([1]; 16 ppm): 44%
CCCCCCCCc1c(CC)nc2ncnn2c1N [II-7, 5-ethyl-6-octyl-[1,2,4]triazolo[1,5-a]pyrimidin-7-ylamine] | 7% | – | – | – | Observed effect (%) ([1]; 1 ppm): 0%; Observed effect (%) ([1]; 4 ppm): 22%
CCc1nc2ncnn2c(N)c1CCC(C)CC(C)(C)C (stereo not drawn) [II-8, 5-ethyl-6-(3,5,5-trimethylhexyl)-[1,2,4]triazolo[1,5-a]pyrimidin-7-ylamine] | – | 1% | – | – | Observed effect (%) ([4]; 4 ppm): 22%; Observed effect (%) ([1]; 1 ppm): 33%
CCCCCCCCc1c(COC)nc2ncnn2c1N [II-10, 5-methoxymethyl-6-octyl-[1,2,4]triazolo[1,5-a]pyrimidin-7-ylamine] | – | – | – | – | Observed effect (%) ([4]; 16 ppm): 0%; Observed effect (%) ([5]; 16 ppm): 0%; Observed effect (%) ([8]; 16 ppm): 0%; Observed effect (%) ([9]; 16 ppm, curative): 0%; Observed effect (%) ([1]; 4 ppm): 0%; Observed effect (%) ([1]; 16 ppm): 44%; Observed effect (%) ([2]; 0.25 ppm): 10%
Cc1cnc(C2=NC(=O)C(C)(C(C)C)N2)c(C(=O)O)c1 (stereo not drawn) [Imazapic (I.Cd)] | 4% | 4% | 12% | 0% | Observed effect (%) ([1]; 0.063 ppm): 0%
CC(C)C1(C)N=C(c2ncccc2C(=O)O)NC1=O (stereo not drawn) [Imazapyr (I.Ca)] | 1% | 9% | 8% | – | Observed effect (%) ([1]; 0.063 ppm): 0%
CC(C)C1(C)N=C(c2nc3ccccc3cc2C(=O)O)NC1=O (stereo not drawn) [Imazaquin (I.Cc)] | 8% | 11% | 23% | 0% | –
CCc1cnc(C2=NC(C)(C(C)C)C(=O)N2)c(C(=O)O)c1 (stereo not drawn) [Imazethapyr (I.Cb)] | 3% | 8% | 9% | 0% | –
C[n+]1ccc(-c2cc[n+](C)cc2)cc1 [Paraquat (I.Fa), paraquat, reference compound] | 4% | 5% | 7% | – | Observed effect (%) [4, 10]: 0%; Observed effect (%) ([4]; 0.25 ppm): 0%; Observed effect (%) ([5]; 0.25 ppm): 0%; Observed effect (%) ([9]; 0.25 ppm, curative (sprayed 1 day after inoculation)): 0%
CCC(CC)Nc1c([N+](=O)[O-])cc(C)c(C)c1[N+](=O)[O-] [Pendimethalin (I.Da)] | 7% | 16% | 29% | 0% | Observed effect (%) ([2]; 63 ppm): 38%
CCC/C(=N\OCC)C1=C(O)CC(CC(C)SCC)CC1=O (stereo not drawn) [Sethoxydim (I.Bc), sethoxydim, reference compound] | 2% | 5% | 14% | 0% | Observed effect (%) ([8]; 0.25 ppm): 0%

— patent US8461077B2 (priority 2007, dated 2013)
